In ChEMBL document CHEMBL3885881, “DrugMatrix”:

Species: Rattus norvegicus
Assay: DrugMatrix - Regimen: Daily Repeat
Format: toxicity, organism-based, Sprague-Dawley
Set-up: regimen Daily Repeat, gender Male, age 6-8 weeks
Conditions: in vivo, po, route oral GAVAGE, vehicle .5 % CMC; for BASOPHIL / EOSINOPHIL / ERYTHROCYTE COUNT / HEMATOCRIT / HEMOGLOBIN / LEUKOCYTE COUNT / LYMPHOCYTE / MEAN CORPUSCULAR HEMOGLOBIN / MEAN CORPUSCULAR HEMOGLOBIN CONCENTRATION / MEAN CORPUSCULAR VOLUME / MONOCYTE / NEUTROPHIL / PLATELET COUNT: tissue Blood; for ALANINE AMINOTRANSFERASE / ALBUMIN / ALKALINE PHOSPHATASE / ASPARTATE AMINOTRANSFERASE / BLOOD UREA NITROGEN / CHLORIDE / CHOLESTEROL / CREATINE PHOSPHOKINASE / CREATININE / GLUCOSE / PHOSPHORUS / SODIUM / TOTAL PROTEIN: tissue Plasma
[1] = 0 mg/kg, 72 h, dose level Control, time 3 day
[2] = 0 mg/kg, 120 h, dose level Control, time 5 day
[3] = 10 mg/kg, 72 h, dose level Low, time 3 day
[4] = 10 mg/kg, 120 h, dose level Low, time 5 day
[5] = 2000 mg/kg, 72 h, dose level High, time 3 day
[6] = 2000 mg/kg, 120 h, dose level High, time 5 day

## CCn1cc(C(=O)O)c(=O)c2cc(F)c(N3CCNC(C)C3)c(F)c21 (stereo unspecified) [LOMEFLOXACIN]
[1]
  BASOPHIL: 0%
  EOSINOPHIL: 0.4%
  ERYTHROCYTE COUNT: 6.43 x10E6/uL
  HEMATOCRIT: 37.36%
  HEMOGLOBIN: 13.98 G/DL
  LEUKOCYTE COUNT: 13 x10E3/uL
  LYMPHOCYTE: 81.4%
  MEAN CORPUSCULAR HEMOGLOBIN: 21.9 pg
  MEAN CORPUSCULAR HEMOGLOBIN CONCENTRATION: 37.4 G/DL
  MEAN CORPUSCULAR VOLUME: 58.52 fL
  MONOCYTE: 0.4%
  NEUTROPHIL: 18%
  PLATELET COUNT: 1386 x10E3/uL
  ALANINE AMINOTRANSFERASE: 39.33 u/L
  ALBUMIN: 3.57 G/DL
  ALKALINE PHOSPHATASE: 283.83 u/L
  ASPARTATE AMINOTRANSFERASE: 69.5 u/L
  BLOOD UREA NITROGEN: 14.83 mg/dL
  CHLORIDE: 107.33 MEQ/L
  CHOLESTEROL: 75.17 mg/dL
  CREATINE PHOSPHOKINASE: 107.67 u/L
  CREATININE: 0.48 mg/dL
  GLUCOSE: 172.5 mg/dL
  PHOSPHORUS: 10.48 mg/dL
  SODIUM: 152.33 MEQ/L
  TOTAL PROTEIN: 5.9 G/DL
[2]
  BASOPHIL: 0%
  EOSINOPHIL: 0.4%
  ERYTHROCYTE COUNT: 6.96 x10E6/uL
  HEMATOCRIT: 41.12%
  HEMOGLOBIN: 15.24 G/DL
  LEUKOCYTE COUNT: 11.06 x10E3/uL
  LYMPHOCYTE: 88.6%
  MEAN CORPUSCULAR HEMOGLOBIN: 21.96 pg
  MEAN CORPUSCULAR HEMOGLOBIN CONCENTRATION: 37.1 G/DL
  MEAN CORPUSCULAR VOLUME: 59.12 fL
  MONOCYTE: 0.2%
  NEUTROPHIL: 10.8%
  PLATELET COUNT: 1155.8 x10E3/uL
  ALANINE AMINOTRANSFERASE: 36.33 u/L
  ALBUMIN: 3.72 G/DL
  ALKALINE PHOSPHATASE: 340.33 u/L
  ASPARTATE AMINOTRANSFERASE: 68.33 u/L
  BLOOD UREA NITROGEN: 15 mg/dL
  CHLORIDE: 108.17 MEQ/L
  CHOLESTEROL: 74.67 mg/dL
  CREATINE PHOSPHOKINASE: 110.67 u/L
  CREATININE: 0.47 mg/dL
  GLUCOSE: 171.33 mg/dL
  PHOSPHORUS: 10.05 mg/dL
  SODIUM: 155.5 MEQ/L
  TOTAL PROTEIN: 6.33 G/DL
[3]
  BASOPHIL: 0%
  EOSINOPHIL: 0.33%
  ERYTHROCYTE COUNT: 6.14 x10E6/uL
  HEMATOCRIT: 37.73%
  HEMOGLOBIN: 14.37 G/DL
  LEUKOCYTE COUNT: 14.47 x10E3/uL
  LYMPHOCYTE: 89.33%
  MEAN CORPUSCULAR HEMOGLOBIN: 23.47 pg
  MEAN CORPUSCULAR HEMOGLOBIN CONCENTRATION: 38.1 G/DL
  MEAN CORPUSCULAR VOLUME: 61.53 fL
  MONOCYTE: 0%
  NEUTROPHIL: 10.33%
  PLATELET COUNT: 1193.33 x10E3/uL
  ALANINE AMINOTRANSFERASE: 39 u/L
  ALBUMIN: 3.37 G/DL
  ALKALINE PHOSPHATASE: 307 u/L
  ASPARTATE AMINOTRANSFERASE: 60.67 u/L
  BLOOD UREA NITROGEN: 11.33 mg/dL
  CHLORIDE: 106.67 MEQ/L
  CHOLESTEROL: 65.33 mg/dL
  CREATINE PHOSPHOKINASE: 106 u/L
  CREATININE: 0.53 mg/dL
  GLUCOSE: 175.33 mg/dL
  PHOSPHORUS: 12.17 mg/dL
  SODIUM: 151.67 MEQ/L
  TOTAL PROTEIN: 5.53 G/DL
[4]
  BASOPHIL: 0%
  EOSINOPHIL: 0%
  ERYTHROCYTE COUNT: 6.95 x10E6/uL
  HEMATOCRIT: 41.1%
  HEMOGLOBIN: 15.1 G/DL
  LEUKOCYTE COUNT: 16.87 x10E3/uL
  LYMPHOCYTE: 90.67%
  MEAN CORPUSCULAR HEMOGLOBIN: 21.77 pg
  MEAN CORPUSCULAR HEMOGLOBIN CONCENTRATION: 36.73 G/DL
  MEAN CORPUSCULAR VOLUME: 59.17 fL
  MONOCYTE: 0.33%
  NEUTROPHIL: 9%
  PLATELET COUNT: 1212.33 x10E3/uL
  ALANINE AMINOTRANSFERASE: 46.33 u/L
  ALBUMIN: 3.43 G/DL
  ALKALINE PHOSPHATASE: 276.33 u/L
  ASPARTATE AMINOTRANSFERASE: 68 u/L
  BLOOD UREA NITROGEN: 13.67 mg/dL
  CHLORIDE: 105 MEQ/L
  CHOLESTEROL: 70 mg/dL
  CREATINE PHOSPHOKINASE: 104.33 u/L
  CREATININE: 0.57 mg/dL
  GLUCOSE: 159.33 mg/dL
  PHOSPHORUS: 10.67 mg/dL
  SODIUM: 151.67 MEQ/L
  TOTAL PROTEIN: 5.7 G/DL
[5]
  BASOPHIL: 0%
  EOSINOPHIL: 0%
  ERYTHROCYTE COUNT: 6.7 x10E6/uL
  HEMATOCRIT: 41%
  HEMOGLOBIN: 15.63 G/DL
  LEUKOCYTE COUNT: 12.43 x10E3/uL
  LYMPHOCYTE: 83%
  MEAN CORPUSCULAR HEMOGLOBIN: 23.33 pg
  MEAN CORPUSCULAR HEMOGLOBIN CONCENTRATION: 38.17 G/DL
  MEAN CORPUSCULAR VOLUME: 61.2 fL
  MONOCYTE: 0.33%
  NEUTROPHIL: 16.67%
  PLATELET COUNT: 1479.67 x10E3/uL
  ALANINE AMINOTRANSFERASE: 32 u/L
  ALBUMIN: 3.53 G/DL
  ALKALINE PHOSPHATASE: 214.33 u/L
  ASPARTATE AMINOTRANSFERASE: 57.67 u/L
  BLOOD UREA NITROGEN: 19 mg/dL
  CHLORIDE: 103.33 MEQ/L
  CHOLESTEROL: 62.67 mg/dL
  CREATINE PHOSPHOKINASE: 126 u/L
  CREATININE: 0.67 mg/dL
  GLUCOSE: 129.33 mg/dL
  PHOSPHORUS: 11.57 mg/dL
  SODIUM: 149.33 MEQ/L
  TOTAL PROTEIN: 5.93 G/DL
[6]
  BASOPHIL: 0%
  EOSINOPHIL: 0%
  ERYTHROCYTE COUNT: 6.87 x10E6/uL
  HEMATOCRIT: 40.23%
  HEMOGLOBIN: 15.07 G/DL
  LEUKOCYTE COUNT: 19.9 x10E3/uL
  LYMPHOCYTE: 96.33%
  MEAN CORPUSCULAR HEMOGLOBIN: 21.93 pg
  MEAN CORPUSCULAR HEMOGLOBIN CONCENTRATION: 37.47 G/DL
  MEAN CORPUSCULAR VOLUME: 58.57 fL
  MONOCYTE: 0%
  NEUTROPHIL: 3.67%
  PLATELET COUNT: 1396 x10E3/uL
  ALANINE AMINOTRANSFERASE: 40.67 u/L
  ALBUMIN: 3.47 G/DL
  ALKALINE PHOSPHATASE: 183 u/L
  ASPARTATE AMINOTRANSFERASE: 56.33 u/L
  BLOOD UREA NITROGEN: 13.33 mg/dL
  CHLORIDE: 106 MEQ/L
  CHOLESTEROL: 63 mg/dL
  CREATINE PHOSPHOKINASE: 125.67 u/L
  CREATININE: 0.5 mg/dL
  GLUCOSE: 154.67 mg/dL
  PHOSPHORUS: 10.7 mg/dL
  SODIUM: 152.33 MEQ/L
  TOTAL PROTEIN: 5.8 G/DL
